{"source": "patent US9266847B2", "about": "“Compounds, probes, and methods of synthesis and methods of imaging COX-2-associated diseases” (Vanderbilt University, priority 2012, dated 2016)", "biological_target": "T1, ovine COX2 (Ovis aries, UniProt P79208)", "T1 sequence (P79208 17-603)": "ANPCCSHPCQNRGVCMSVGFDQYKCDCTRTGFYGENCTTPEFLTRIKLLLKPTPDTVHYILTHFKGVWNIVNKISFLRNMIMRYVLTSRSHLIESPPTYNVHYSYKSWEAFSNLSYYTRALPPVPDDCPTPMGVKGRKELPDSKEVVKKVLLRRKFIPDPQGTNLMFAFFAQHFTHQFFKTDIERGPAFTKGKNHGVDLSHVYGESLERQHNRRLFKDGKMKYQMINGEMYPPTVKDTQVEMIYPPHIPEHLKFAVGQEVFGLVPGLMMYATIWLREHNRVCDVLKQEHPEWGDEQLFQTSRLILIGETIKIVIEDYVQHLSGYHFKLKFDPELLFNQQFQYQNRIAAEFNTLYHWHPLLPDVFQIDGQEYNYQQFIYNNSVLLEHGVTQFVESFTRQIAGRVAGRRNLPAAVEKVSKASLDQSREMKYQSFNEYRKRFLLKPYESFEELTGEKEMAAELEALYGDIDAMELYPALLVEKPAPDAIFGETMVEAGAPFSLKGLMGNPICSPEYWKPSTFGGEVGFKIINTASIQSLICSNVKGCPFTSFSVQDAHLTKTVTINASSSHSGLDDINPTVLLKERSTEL", "test": "IC50 assay, Cayman colorimetric COX inhibitor screening assay kit", "conditions": "FIG. 2, 10 duplicate concentrations", "procedure": "Various concentrations of the ^19F-COX2 compound ranging from 0.1 μM to 0.3 nM were dispensed into designated wells within a 96-well microtiter plate at a final volume of 220 μL per well. Each well contained an assay buffer, heme, and ovine COX2 provided in Cayman's colorimetric COX inhibitor screening assay kit. […] Five minutes after incubation of all assay components at 25° C., an arachidonic acid substrate at a final concentration of 100 μM and the colorimetric co-substrate N,N,N′,N′-tetramethyl-p-phenylenediamine were added to each well. The plate was then incubated at 25° C. for an additional 5 min before reading the absorbance at 590 nm using a plate reader. Absorbance of the duplicate assay of each well was averaged and subtracted from the 100% initial activity sample, after which it was divided by the 100% initial activity sample and multiplied by 100 to arrive at the percentage of inhibition."}
{"smiles": "Cc1csc(Cc2c3cccccc-3c(C(=O)c3ccc(F)cc3)c2C)n1", "note": "[^19F-COX2]", "values": [{"measurement": "Hill slope of the inhibition curve", "value": "−0.62"}]}
